Results reported in PubChem BioAssay AID248 (DTP/NCI, 2004).
“And” between values parts separate entries of the source, which are not always exact repeats. Equal values may be shown once. Toxic doses and inconclusive results are not listed. No stated cut-off is given here; in the data, active means T/C of 150% or more; inactive means T/C below 125%. Square brackets hold non-standard residues; d marks the D form. Peptide text beside a SMILES is read from it. * marks the point of attachment. ξ: configuration not given here. Trt = c1ccc(C(c2ccccc2)(c2ccccc2)*)cc1; ξF = NC(Cc1ccccc1)C(=O)O; Cbz = O=C(OCc1ccccc1)*; NHNH2 = NN*

Tested on: L1210 leukemia ip in BDF1 mice, survival T/C
Assay: NCI In Vivo Anticancer Drug Screen. Data for tumor model L1210 Leukemia (intraperitoneal) in B6D2F1 (BDF1) mice
Conditions: endpoint: mean survival time, higher = longer survival
Summary of the method: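 Tumor cells were implanted, animals were treated, and survival was followed. The result divides the treated measurement by the vehicle-control measurement.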

[1] = dose: 100.0 mg/kg/injection, schedule: Q01DX001 (ip), vehicle: carboxymethylcellulose (CMC)
[2] = dose: 200.0 mg/kg/injection, schedule: Q01DX001 (ip), vehicle: carboxymethylcellulose (CMC)
[3] = dose: 400.0 mg/kg/injection, schedule: Q01DX001 (ip), vehicle: carboxymethylcellulose (CMC)
[4] = dose: 100.0 mg/kg/injection, schedule: Q01DX001 (ip), vehicle: saline
[5] = dose: 200.0 mg/kg/injection, schedule: Q01DX001 (ip), vehicle: saline
[6] = dose: 50.0 mg/kg/injection, schedule: Q01DX009 (ip), vehicle: Klucel (hydroxypropylcellulose) (HPC)
[7] = dose: 100.0 mg/kg/injection, schedule: Q01DX009 (ip), vehicle: Klucel (hydroxypropylcellulose) (HPC)
[8] = dose: 100.0 mg/kg/injection, schedule: Q04DX003 (ip), vehicle: Klucel (hydroxypropylcellulose) (HPC)
[9] = dose: 200.0 mg/kg/injection, schedule: Q01DX009 (ip), vehicle: Klucel (hydroxypropylcellulose) (HPC)
[10] = dose: 200.0 mg/kg/injection, schedule: Q04DX003 (ip), vehicle: Klucel (hydroxypropylcellulose) (HPC)
[11] = dose: 100.0 mg/kg/injection, schedule: Q04DX003 (ip), vehicle: saline with Tween-80
[12] = dose: 200.0 mg/kg/injection, schedule: Q04DX003 (ip), vehicle: saline with Tween-80
[13] = dose: 400.0 mg/kg/injection, schedule: Q04DX003 (ip), vehicle: saline with Tween-80
[14] = dose: 400.0 mg/kg/injection, schedule: Q01DX001 (ip), vehicle: saline
[15] = dose: 100.0 mg/kg/injection, schedule: Q04DX003 (ip), vehicle: saline
[16] = dose: 200.0 mg/kg/injection, schedule: Q04DX003 (ip), vehicle: saline
[17] = dose: 400.0 mg/kg/injection, schedule: Q04DX003 (ip), vehicle: saline
[18] = dose: 400.0 mg/kg/injection, schedule: Q04DX003 (ip), vehicle: Klucel (hydroxypropylcellulose) (HPC)
[19] = dose: 100.0 mg/kg/injection, schedule: Q01DX009 (ip), vehicle: saline

Measured: T/C

O=C(O)CSc1ccc([N+](=O)[O-])cn1
inactive: dose: 6.25 mg/kg/injection, schedule: Q01DX001 (ip), vehicle: carboxymethylcellulose (CMC) 108 % of control | dose: 12.5 mg/kg/injection, schedule: Q01DX001 (ip), vehicle: carboxymethylcellulose (CMC) 111 % of control | dose: 25.0 mg/kg/injection, schedule: Q01DX001 (ip), vehicle: carboxymethylcellulose (CMC) 104 % of control | dose: 37.5 mg/kg/injection, schedule: Q01DX001 (ip), vehicle: carboxymethylcellulose (CMC) 104 % of control | dose: 50.0 mg/kg/injection, schedule: Q01DX001 (ip), vehicle: carboxymethylcellulose (CMC) 115 % of control | [1] 101 % of control | [2] 103 % of control | [3] 101 % of control

COc1cc2c(cc1OC)C(NC(C)C)CCCC2 (stereo not drawn)
inactive: [4] 98 % of control | [5] 95 % of control

NNC(=O)C(Cc1ccc(O)cc1)NC(=O)C(CO)NC(=O)C(CSC(c1ccccc1)(c1ccccc1)c1ccccc1)NC(=O)OCc1ccccc1 (stereo not drawn) (Cbz-Cys(Trt)-Ser-Tyr-NHNH2; configuration not given here)
inactive: dose: 75.0 mg/kg/injection, schedule: Q01DX001 (ip), vehicle: saline 96 % of control | dose: 150.0 mg/kg/injection, schedule: Q01DX001 (ip), vehicle: saline 96 % of control | dose: 300.0 mg/kg/injection, schedule: Q01DX001 (ip), vehicle: saline 90 % of control

O=C(CNC(=O)OCc1ccccc1)NC(Cc1ccccc1)C(=O)O (stereo not drawn) (Cbz-Gly-[ξF]-OH)
inactive: [6] 95 % of control | dose: 50.0 mg/kg/injection, schedule: Q04DX003 (ip), vehicle: Klucel (hydroxypropylcellulose) (HPC) 93 % of control | [7] 97 % of control | [8] 98 % of control | [9] 93 % of control | [10] 100 % of control

CC(NC(=O)c1ccc2ccccc2n1)C(=O)O (stereo not drawn)
inactive: [1] 92 % of control | [2] 87 % of control | [3] 89 % of control

COC1OC(COC(c2ccccc2)(c2ccccc2)c2ccccc2)C(OC)C(OC)C1OC (stereo not drawn)
inactive: [11] 93 % of control | [12] 94 % of control | [13] 88 % of control

C/C(=N\NC(N)=S)c1cccs1
inactive: dose: 12.5 mg/kg/injection, schedule: Q04DX003 (ip), vehicle: saline with Tween-80 93 % of control | dose: 25.0 mg/kg/injection, schedule: Q04DX003 (ip), vehicle: saline with Tween-80 103 % of control | dose: 50.0 mg/kg/injection, schedule: Q04DX003 (ip), vehicle: saline with Tween-80 101 % of control

CNC(CCC(=O)O)C(=O)O (stereo not drawn)
inactive: [4] 89 % of control | [5] 96 % of control | [14] 91 % of control

O=C(NCCCl)NC(CO)C(=O)O (stereo not drawn)
inactive: [15] 98 % of control | [16] 93 % of control | [17] 95 % of control

CSCCCNC(=O)NS(=O)(=O)c1ccc(C)cc1
inactive: [11] 97 % of control | [12] 100 % of control | [13] 97 % of control

O=C1CC(C(c2ccccc2)c2ccccc2)CO1 (stereo not drawn)
inactive: dose: 100.0 mg/kg/injection, schedule: Q01DX001 (ip), vehicle: Klucel (hydroxypropylcellulose) (HPC) 104 % of control | [7] 110 % of control and 89 % of control | dose: 100.0 mg/kg/injection, schedule: Q04DX002 (ip), vehicle: Klucel (hydroxypropylcellulose) (HPC) 94 % of control and 99 % of control | [8] 94 % of control | dose: 200.0 mg/kg/injection, schedule: Q01DX001 (ip), vehicle: Klucel (hydroxypropylcellulose) (HPC) 100 % of control | [9] 113 % of control and 89 % of control | dose: 200.0 mg/kg/injection, schedule: Q04DX002 (ip), vehicle: Klucel (hydroxypropylcellulose) (HPC) 94 % of control and 96 % of control | [10] 94 % of control | dose: 400.0 mg/kg/injection, schedule: Q01DX001 (ip), vehicle: Klucel (hydroxypropylcellulose) (HPC) 98 % of control | dose: 400.0 mg/kg/injection, schedule: Q01DX009 (ip), vehicle: Klucel (hydroxypropylcellulose) (HPC) 116 % of control and 89 % of control | dose: 400.0 mg/kg/injection, schedule: Q04DX002 (ip), vehicle: Klucel (hydroxypropylcellulose) (HPC) 99 % of control and 101 % of control | [18] 95 % of control

CCOCC(OC)OC
inactive: [19] 95 % of control | [15] 93 % of control | dose: 200.0 mg/kg/injection, schedule: Q01DX009 (ip), vehicle: saline 97 % of control | [16] 98 % of control | dose: 400.0 mg/kg/injection, schedule: Q01DX009 (ip), vehicle: saline 97 % of control | [17] 107 % of control

CCCCC(=O)NC(=O)c1ccccc1
inactive: dose: 100.0 mg/kg/injection, schedule: Q01DX009 (ip), vehicle: saline with Tween-80 96 % of control | [11] 101 % of control | dose: 200.0 mg/kg/injection, schedule: Q01DX009 (ip), vehicle: saline with Tween-80 96 % of control | [12] 92 % of control | dose: 400.0 mg/kg/injection, schedule: Q01DX009 (ip), vehicle: saline with Tween-80 93 % of control | [13] 103 % of control

Cc1nc(N)nc2c1CCC(Nc1ccccc1)S2 (stereo not drawn)
inactive: [8] 106 % of control | [10] 103 % of control | [18] 92 % of control

CCCCCCCCCCCCOC(=O)NCCCl
inactive: dose: 100.0 mg/kg/injection, schedule: Q01DX001 (ip), vehicle: saline with Tween-80 103 % of control | dose: 200.0 mg/kg/injection, schedule: Q01DX001 (ip), vehicle: saline with Tween-80 102 % of control | dose: 400.0 mg/kg/injection, schedule: Q01DX001 (ip), vehicle: saline with Tween-80 103 % of control

CCOC(=O)c1ccc(NCc2cnc3nc(N)nc(N)c3n2)cc1
inactive: dose: 3.0 mg/kg/injection, schedule: Q01DX009 (ip), vehicle: other 106 % of control | dose: 6.0 mg/kg/injection, schedule: Q01DX009 (ip), vehicle: other 102 % of control | dose: 12.0 mg/kg/injection, schedule: Q01DX009 (ip), vehicle: other 98 % of control | dose: 24.0 mg/kg/injection, schedule: Q01DX009 (ip), vehicle: other 98 % of control

CCCCCCCC/C=C\CCCCCCCC(=O)O.[Fe]
inactive: [4] 93 % of control | [5] 95 % of control | [14] 90 % of control

COC1C(C)(C)C2(C)CC[N+]1(Cc1ccccc1)C2 (stereo not drawn)
inactive: dose: 25.0 mg/kg/injection, schedule: Q04DX002 (ip), vehicle: saline 106 % of control | dose: 50.0 mg/kg/injection, schedule: Q04DX002 (ip), vehicle: saline 97 % of control | dose: 100.0 mg/kg/injection, schedule: Q04DX002 (ip), vehicle: saline 116 % of control

CCC1CN1P(=O)(N(CC)CC)N1CC1CC (stereo not drawn)
inactive: dose: 29.0 mg/kg/injection, schedule: Q01DX015 (ip), vehicle: saline 100 % of control | dose: 44.0 mg/kg/injection, schedule: Q01DX015 (ip), vehicle: saline 105 % of control | dose: 66.0 mg/kg/injection, schedule: Q01DX015 (ip), vehicle: saline 109 % of control | dose: 89.0 mg/kg/injection, schedule: Q01DX001 (ip), vehicle: saline 111 % of control | [4] 103 % of control | [19] 107 % of control | dose: 100.0 mg/kg/injection, schedule: Q01DX015 (ip), vehicle: saline 110 % of control | dose: 133.0 mg/kg/injection, schedule: Q01DX001 (ip), vehicle: saline 119 % of control | dose: 150.0 mg/kg/injection, schedule: Q01DX009 (ip), vehicle: saline 107 % of control | [5] 121 % of control

O=c1[nH]c2ccc(Cl)cc2c2nc3ccccc3n12
inactive: [6] 107 % of control | [7] 101 % of control | [9] 92 % of control

Cc1ccc(C(C)(N=[N+]=[N-])c2ccccc2)cc1C (stereo not drawn)
inactive: [4] 93 % of control | [5] 96 % of control | [14] 109 % of control

Cn1nc(NN)c2cccnc21
inactive: dose: 75.0 mg/kg/injection, schedule: Q01DX001 (ip), vehicle: other 103 % of control | dose: 150.0 mg/kg/injection, schedule: Q01DX001 (ip), vehicle: other 104 % of control

O=C(Nc1ncccn1)Nc1ccccc1C(F)(F)F
inactive: dose: 100.0 mg/kg/injection, schedule: Q01DX009 (ip), vehicle: gum acacia 88 % of control | dose: 200.0 mg/kg/injection, schedule: Q01DX009 (ip), vehicle: gum acacia 86 % of control | dose: 400.0 mg/kg/injection, schedule: Q01DX009 (ip), vehicle: gum acacia 88 % of control
